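Values below derive from 48-hour exposures of cells grown in 96-well plates, with endpoints linearly interpolated between the two concentrations bracketing the appropriate inhibition level. GI50 marks 50% less growth.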 Calls of active or inactive are those of the source. No stated cut-off is given here; in the data, active = GI50 up to about 1.1 µM and inactive = higher. Residues, ends and D or L forms follow the SMILES beside them. *: point of attachment. OBn = c1ccc(CO*)cc1
Columns and labels:
Assay in all cases: NCI-60 cell line screen, 48 h
Hs-578T = test system: Hs-578T
RPMI-8226 = test system: RPMI-8226
M14 = test system: M14
MCF7 = test system: MCF7
Malme-3M = test system: Malme-3M
RXF 393 = test system: RXF 393
MDA-N = test system: MDA-N
BT-549 = test system: BT-549
UACC-62 = test system: UACC-62
CCRF-CEM = test system: CCRF-CEM
SK-MEL-5 = test system: SK-MEL-5
MOLT-4 = test system: MOLT-4
IGROV-1 = test system: IGROV-1
COLO 205 = test system: COLO 205
CAKI-1 = test system: CAKI-1
HOP-92 = test system: HOP-92
NCI-H23 = test system: NCI-H23
DU-145 = test system: DU-145
SK-MEL-2 = test system: SK-MEL-2

Compound	GI50 (Hs-578T)	GI50 (RPMI-8226)	GI50 (M14)	GI50 (MCF7)	GI50 (Malme-3M)	GI50 (RXF 393)	GI50 (MDA-N)	GI50 (BT-549)	GI50 (UACC-62)	GI50 (CCRF-CEM)	GI50 (SK-MEL-5)	GI50 (MOLT-4)	GI50 (IGROV-1)	GI50 (COLO 205)	GI50 (CAKI-1)	GI50 (HOP-92)	GI50 (NCI-H23)	GI50 (DU-145)	GI50 (SK-MEL-2)
NC(CCC(=O)OCc1ccccc1)C(=O)NC(CCC(=O)OCc1ccccc1)C(=O)O (stereo not given) (H-Glu(OBn)-Glu(OBn)-OH; configuration not given here)	> 100 µM (inactive)	> 100 µM (inactive)	> 100 µM (inactive)	> 100 µM (inactive)	> 100 µM (inactive)	> 100 µM (inactive)	> 100 µM (inactive)	> 100 µM (inactive)	> 100 µM (inactive)	> 100 µM (inactive)	> 100 µM (inactive)	> 100 µM (inactive)	> 100 µM (inactive)	> 100 µM (inactive)	> 100 µM (inactive)	> 100 µM (inactive)	> 100 µM (inactive)	> 100 µM (inactive)	–
COc1ccc(/C=C2\N=C(N3CCCCC3)NC2=O)cc1	> 100 µM (inactive)	> 100 µM (inactive)	> 100 µM (inactive)	> 100 µM (inactive)	> 100 µM (inactive)	64 µM (inactive)	59 µM (inactive)	> 100 µM (inactive)	> 100 µM (inactive)	> 100 µM (inactive)	–	> 100 µM (inactive)	> 100 µM (inactive)	> 100 µM (inactive)	> 100 µM (inactive)	> 100 µM (inactive)	> 100 µM (inactive)	> 100 µM (inactive)	> 100 µM (inactive)
CC(=O)/C(=N\N=C(N)N)c1ccccc1	> 100 µM (inactive)	> 100 µM (inactive)	> 100 µM (inactive)	> 100 µM (inactive)	> 100 µM (inactive)	> 100 µM (inactive)	> 100 µM (inactive)	> 100 µM (inactive)	> 100 µM (inactive)	–	> 100 µM (inactive)	> 100 µM (inactive)	> 100 µM (inactive)	35.1 µM (inactive)	> 100 µM (inactive)	> 100 µM (inactive)	> 100 µM (inactive)	> 100 µM (inactive)	> 100 µM (inactive)
C[N+]1(Cc2ccc(Cl)c(Cl)c2)CCCC1C1CCCN(Cc2ccc(Cl)c(Cl)c2)C1 (stereo not given)	> 100 µM (inactive)	> 100 µM (inactive)	> 100 µM (inactive)	> 100 µM (inactive)	82.4 µM (inactive)	> 100 µM (inactive)	> 100 µM (inactive)	> 100 µM (inactive)	> 100 µM (inactive)	–	32.2 µM (inactive)	> 100 µM (inactive)	70 µM (inactive)	> 100 µM (inactive)	> 100 µM (inactive)	> 100 µM (inactive)	> 100 µM (inactive)	> 100 µM (inactive)	> 100 µM (inactive)
CCOC(=O)c1c(NC(=S)Nc2ccc(C)cc2)sc2c1CCN(C)C2	> 100 µM (inactive)	> 100 µM (inactive)	> 100 µM (inactive)	> 100 µM (inactive)	–	> 100 µM (inactive)	> 100 µM (inactive)	> 100 µM (inactive)	> 100 µM (inactive)	> 100 µM (inactive)	> 100 µM (inactive)	> 100 µM (inactive)	> 100 µM (inactive)	> 100 µM (inactive)	> 100 µM (inactive)	–	> 100 µM (inactive)	> 100 µM (inactive)	> 100 µM (inactive)
Clc1sc(Cl)c2c1[C@H](Cl)C[C@@H]2Cl	15.9 µM (inactive)	–	15.1 µM (inactive)	6.52 µM (inactive)	15 µM (inactive)	–	20.6 µM (inactive)	26.5 µM (inactive)	22.2 µM (inactive)	6.82 µM (inactive)	32.4 µM (inactive)	50.2 µM (inactive)	17.4 µM (inactive)	29.2 µM (inactive)	20.2 µM (inactive)	6.58 µM (inactive)	24.4 µM (inactive)	27.5 µM (inactive)	22.5 µM (inactive)
O=C(Cc1ccccc1)NCCc1ccc(O)c(O)c1	> 100 µM (inactive)	15.6 µM (inactive)	> 100 µM (inactive)	> 100 µM (inactive)	> 100 µM (inactive)	> 100 µM (inactive)	17.4 µM (inactive)	82.8 µM (inactive)	48.9 µM (inactive)	5.14 µM (inactive)	> 100 µM (inactive)	16.6 µM (inactive)	77.1 µM (inactive)	> 100 µM (inactive)	–	> 100 µM (inactive)	52.6 µM (inactive)	> 100 µM (inactive)	24.8 µM (inactive)
CC1=C(C(=O)OC(C)C)C(c2ccccc2[N+](=O)[O-])C(C(=O)OC(CO[N+](=O)[O-])CO[N+](=O)[O-])=C(C)N1 (stereo not given)	3.36 µM (inactive)	2.98 µM (inactive)	3.74 µM (inactive)	3.55 µM (inactive)	3.91 µM (inactive)	2.7 µM (inactive)	2.79 µM (inactive)	3.52 µM (inactive)	2.07 µM (inactive)	2.09 µM (inactive)	2.7 µM (inactive)	1.46 µM (inactive)	5.26 µM (inactive)	5.24 µM (inactive)	3.32 µM (inactive)	–	4.27 µM (inactive)	5.68 µM (inactive)	2.99 µM (inactive)
COc1ccc(NC2=CC(=O)C(=O)c3ccccc32)nn1	1.99 µM (inactive)	1.51 µM (inactive)	0.281 µM (active)	0.557 µM (active)	0.661 µM (active)	1.36 µM (inactive)	0.262 µM (active)	0.743 µM (active)	1.34 µM (inactive)	2.92 µM (inactive)	0.643 µM (active)	0.546 µM (active)	1.69 µM (inactive)	1.73 µM (inactive)	2.19 µM (inactive)	–	1.91 µM (inactive)	1.45 µM (inactive)	1.95 µM (inactive)
CSc1nc(N)c(NC2OC(CO)C(O)C2O)c(=O)[nH]1 (stereo not given)	> 100 µM (inactive)	> 100 µM (inactive)	> 100 µM (inactive)	> 100 µM (inactive)	> 100 µM (inactive)	> 100 µM (inactive)	> 100 µM (inactive)	> 100 µM (inactive)	> 100 µM (inactive)	> 100 µM (inactive)	> 100 µM (inactive)	> 100 µM (inactive)	> 100 µM (inactive)	> 100 µM (inactive)	> 100 µM (inactive)	–	–	> 100 µM (inactive)	> 100 µM (inactive)
CC1(C)CC(=O)C2=C(C1)c1c(ccc3ccccc13)NC2c1cn(Cc2ccc(Cl)cc2)c2ccccc12 (stereo not given)	74.1 µM (inactive)	> 100 µM (inactive)	> 100 µM (inactive)	> 100 µM (inactive)	–	–	> 100 µM (inactive)	95.9 µM (inactive)	> 100 µM (inactive)	55.7 µM (inactive)	> 100 µM (inactive)	58.1 µM (inactive)	59.2 µM (inactive)	> 100 µM (inactive)	13.3 µM (inactive)	27.7 µM (inactive)	80.7 µM (inactive)	> 100 µM (inactive)	> 100 µM (inactive)
Cn1c(-c2ccc[se]2)ccc1-c1ccc(C=O)[se]1	25.2 µM (inactive)	1.03 µM (active)	> 86.3 µM (inactive)	0.124 µM (active)	–	–	6.34 µM (inactive)	17.1 µM (inactive)	0.205 µM (active)	0.859 µM (active)	20.7 µM (inactive)	7.43 µM (inactive)	0.122 µM (active)	16.3 µM (inactive)	0.195 µM (active)	10.5 µM (inactive)	12.4 µM (inactive)	29.4 µM (inactive)	65.3 µM (inactive)
CCCCCCNC(=S)N/N=C(\C)c1ccccn1	20.7 µM (inactive)	< 0.01 µM (active)	0.0337 µM (active)	< 0.0415 µM (active)	2.65 µM (inactive)	0.0189 µM (active)	0.904 µM (active)	0.111 µM (active)	0.182 µM (active)	< 0.01 µM (active)	0.299 µM (active)	< 0.01 µM (active)	< 0.01 µM (active)	< 0.01 µM (active)	< 0.01 µM (active)	–	< 0.0311 µM (active)	1.52 µM (inactive)	3.09 µM (inactive)
O=C(O)c1ccc(C(c2c(O)oc3ccccc3c2=O)c2c(O)oc3ccccc3c2=O)cc1	5 µM (inactive)	1.02 µM (active)	43.1 µM (inactive)	> 100 µM (inactive)	–	> 100 µM (inactive)	> 100 µM (inactive)	> 100 µM (inactive)	> 100 µM (inactive)	25.2 µM (inactive)	> 100 µM (inactive)	> 100 µM (inactive)	–	40.9 µM (inactive)	> 100 µM (inactive)	2.82 µM (inactive)	59.7 µM (inactive)	> 100 µM (inactive)	> 100 µM (inactive)
O=C1CSC(c2c[nH]c3ccccc23)N1c1ccc(Cl)cc1 (stereo not given)	> 100 µM (inactive)	> 100 µM (inactive)	> 100 µM (inactive)	> 100 µM (inactive)	–	> 100 µM (inactive)	> 100 µM (inactive)	> 100 µM (inactive)	> 100 µM (inactive)	–	> 100 µM (inactive)	> 100 µM (inactive)	> 100 µM (inactive)	> 100 µM (inactive)	–	2.85 µM (inactive)	> 100 µM (inactive)	> 100 µM (inactive)	> 100 µM (inactive)
CC1(C)C(C(=O)OC(C#N)c2cccc(OCC(=O)OCc3ccccc3)c2)C1(C)C (stereo not given)	> 100 µM (inactive)	–	48.6 µM (inactive)	53 µM (inactive)	> 100 µM (inactive)	> 100 µM (inactive)	> 100 µM (inactive)	> 100 µM (inactive)	> 100 µM (inactive)	19.5 µM (inactive)	> 100 µM (inactive)	18 µM (inactive)	> 100 µM (inactive)	> 100 µM (inactive)	> 100 µM (inactive)	> 100 µM (inactive)	37.4 µM (inactive)	> 100 µM (inactive)	20.4 µM (inactive)
